Values of other authors in US20250049747A1, “USE OF HYPERPOLARIZING AGENTS ALONE AND IN COMBINATION WITH OTHER THERAPEUTIC AGENTS FOR TREATING CANCERS INCLUDING GLIOBLASTOMA” (Trustees of Tufts College, priority 2021, published 2025).

Experiments:
[1] = breast cancer xenograft model in immunodeficient mice; cited from earlier work
[2] = human, in vivo; cited from earlier work

SMILES	toxicity on the heart or on normal breast epithelial cells [1]	blood brain barrier penetrance [2] [%]
O=C(Nc1cc(C(F)(F)F)ccc1O)Nc1cc(C(F)(F)F)ccc1O [NS1643]	did not show any overt toxicity	
COc1ccnc(C[S+]([O-])c2nc3ccc(OC(F)F)cc3[nH]2)c1OC (centres unmarked) [Pantoprazole, pantoprazole]		2
